Measured values as given in patent publication US10196356B2, “Mixed disulfide conjugates of thienopyridine compounds and uses thereof” (The Regents of the University of Michigan, priority 2013, dated 2019).

Assays:
[1] = Kinetics for the reduction of the mixed disulfide conjugates of clopidogrel by GSH (conversion to the AM); format: in vitro ADME; conditions: for first order rate constant for the loss of the mixed disulfide conjugate: 0.2 mg/ml cytosol, 37° C.; for second order rate constant for the loss of the conjugate: equivalent from pseudo first order with 1 mM GSH, with cytosol
Description: The mixed disulfide conjugates were prepared from the reaction mixtures containing 1 mg/ml HLM, 0.1 mM 2-oxoclopidogrel, the NADPH-regenerating system and various thiol reductants and purified using SPE C18 cartridges as described in Materials and Methods. The purified conjugates were then mixed with 1 mM GSH and 0.2 mg/ml cytosol (when present). The conjugate remaining and the AM formed were analyzed using LC-MS/MS. Legend: (A) reduction of the conjugates of BME (◯), CPT (▪), NAC (▾), DFT (▴), and NPT (□) by 1 mM GSH in the presence of 0.2 mg/ml cytosol. (B) reduction of the CPT conjugate by 1 mM GSH in the presence and absence of 0.2 mg/ml cytosol. Legend: (◯), formation of AM in the absence of cytosol; (Δ), formation of the AM in the presence of cytosol; (●), reduction of the conjugate in the absence of cytosol; (▴), reduction of the conjugate in the presence of cytosol. The solid and dashed lines are non-linear curve fittings to a single exponential function.
To examine the reactivity of the mixed disulfide conjugates, the kinetics for the reduction of the mixed disulfide conjugates by GSH were determined. The mixed disulfide conjugates were generated in 1 ml of 50 mM KPi buffer (pH 7.4) buffer containing 1 mg/ml HLM, 0.1 mM 2-oxoclopidogrel and 0.3 or 1 mM thiol reductants. The reaction was incubated at 37° C. for 50 min after initiated by the addition of G6PD. The reaction mixture was then centrifuged at 13,000×g to remove the HLMs and the supernatant was loaded to a pre-conditioned SPE cartridge (C18, 100 mg/1 ml, Agilent Technologies, CA) and the mixed disulfide conjugate was eluted with 2 ml of methanol. The eluent was then dried using a Speedvac concentrator and the dried sample was stored at −80° C. until use. Prior to the kinetic measurements, the dried samples were first re-dissolved in 0.5 ml of 50 mM KPi buffer (pH 7.4) and then equilibrated at 37° C. for 5 min. Small aliquots (1-5 μl) of stock GSH and cytosol (when present) solutions were added to the conjugate samples at 1 mM and 0.2 mg/ml, respectively, to initiate the thiol-disulfide exchange reaction. At designated times, an aliquot of 50 μl of the reaction mixture was withdrawn and mixed with 25 μl of 10% acetic acid in acetonitrile to terminate the thiol-disulfide exchange reaction. The t=0 sample was prepared immediately prior to the addition of GSH. The amounts of the mixed disulfide conjugates and the AM were analyzed using LC-MS/MS as described above.

[2] = tested on: platelets; experiment: Platelet aggregation assay with conjugates pre-incubated with GSH (Example III); format: cell-based, rabbits; conditions: 5 μM ADP; for inhibition of platelet aggregation: conjugate incubated with 1 mM GSH 37° C. 30 min, compared with negative control without conjugate
Description: Approximately 20 ml blood was drawn from rabbits and platelets were collected by centrifugation whereas the supernatants were collected as platelet poor plasma (PPP). Prior to the inhibition assay, the conjugates of Clop-CPT and Tic-NPT were dissolved in 0.5 ml PPP and incubated with 1 mM GSH at 37° C. for 30 min to produce the active metabolite. The platelets were then re-suspended gently in the PPP containing the active metabolite. After incubation at 37° C. for one hour, platelet aggregation was initiated by the addition of 5 μM of the agonist ADP. Platelet aggregation was then recorded using an aggregometer.

[3] = tested on: platelets (P2Y12 receptor); experiment: Ex vivo anti-platelet activity of the mixed disulfide conjugates (ADP-induced aggregation, aggregometer); format: cell-based, New Zealand white rabbits; conditions: 10 μM ADP; for inhibition of platelet aggregation, conjugate itself: not treated with GSH
Description: The mixed disulfide conjugates were prepared and purified from the reaction mixtures in the presence of 0.3 mM CPT and NPT, along with three control samples containing either 1 mM GSH, no thiol reductant or no G6PD. All samples were re-suspended in 0.5 ml PPP, some of which were treated to 1 mM GSH to release the AM. Platelet aggregation was initiated by the addition of 10 μM ADP and recorded with an aggregometer. The percentage of aggregation was normalized to that of PRP and averaged over four separate measurements. For details, see Materials and Methods. Legend: PRP, untreated platelet-rich plasma; GSH, 1 mM GSH in PRP; −G6PD, metabolites produced in the absence of G6PD; —SH, metabolites produced in the absence of any thiol reductants; GSH, metabolites produced in the presence of 1 mM GSH; CPT, metabolites produced in the presence of 0.3 mM CPT; CPT+GSH, metabolites produced in the presence of 0.3 mM CPT and then treated with 1 mM GSH; NPT, metabolites produced in the presence of 0.3 mM NPT; NPT+GSH, metabolites produced in the presence of 0.3 mM NPT and then treated with 1 mM GSH.
In order to generate sufficient quantities of the mixed disulfide conjugates, the metabolism of 2-oxoclopidogrel was performed in 2-ml reaction mixtures containing 1 mg/ml HLM, 0.1 mM 2-oxoclopidogrel, the NADPH-regenerating system, and 0.3 mM CPT or NPT or 1 mM GSH. The reaction was initiated by the addition of 10 units G6PD and incubated at 37° C. for 50 min. Two control samples were prepared in parallel. […] After an incubation of 50 min, the reaction mixtures were centrifuged at 13,000×g to remove the HLMs. The supernatants were loaded onto SPE C18 cartridges to enrich the mixed disulfide conjugates. After extensive washing with water to remove salts and other water-soluble metabolites, the conjugate samples were eluted with 2 ml of methanol. The methanolic fractions were dried using a Speedvac concentrator and the dried samples were then re-suspended in 1 ml of platelet-poor plasma (PPP). Prior to the anti-platelet activity assays, the re-suspended conjugates were divided into two equal volumes (0.5 ml each), one of which was treated with 1 mM GSH at 37° C. for 30 min to generate the AM. Both samples were then placed on ice until use.
The procedures used to determine ex vivo anti-platelet activity were previously reported (see, e.g., Abell L M and Liu E C (2011) J Pharm Exp Ther 339(2):589-596).
Male New Zealand white rabbits (2.2-2.9 kg) were used as blood donors. Whole blood was drawn from a central ear artery into a plastic syringe containing 3.7% sodium citrate as the anticoagulant (1:10 volume ratio of citrate to blood). A whole blood cell count was determined with a Medonic CA620 hematology analyzer (Clinical Diagnostic Solutions, Inc., Plantation, Fla., USA). Platelet-rich plasma (PRP), the supernatant present after centrifugation of whole blood at 100×g for 10 min, was diluted with PPP to achieve a platelet count of approximately 300,000/μl. Platelet-poor plasma was prepared by centrifuging the remaining blood at 1,500×g for 10 min and discarding the bottom cellular layer. The diluted PRP was divided into 0.5 ml samples, centrifuged again at 170×g for 10 mins, and the resulting supernatant was discarded. The platelet pellets were re-suspended in platelet-poor plasma containing the various chemical inhibitors prepared as described previously and incubated with gentle shaking at 37° C. for 60 min to modify the P2Y12 receptor. Ex vivo platelet aggregation was assessed by established nephelometric methods with the use of a 4-channel aggregometer (BioData PAP-4; BioData Corp., Horsham, Pa., USA) by recording the increase in light transmission through a stirred suspension of PRP maintained at 37° C. Platelet aggregation was induced with ADP (10 μM). A subaggregatory concentration of epinephrine (550 nM) was used to prime the platelets before addition of the agonist.

[4] = 1 mM GSH, in the absence of cytosol
[5] = 1 mM GSH, in the presence of cytosol (FIG. 5B)
[6] = conjugate treated with 1 mM GSH 37° C. 30 min, normalized to PRP

Question: With COC(=O)[C@H](c1ccccc1Cl)N1CCC(SSc2cc(C)oc2C)C(=CC(=O)O)C1 (stereo partly drawn) [DFT conjugate] as the molecule, how does the “first order rate constant for the loss of the mixed disulfide conjugate” value (“first order rate constant for the loss” below) ([1]; 1 mM GSH) read?
Answer: 1.65 min⁻¹

Question: And the “second order rate constant for the loss of the conjugate” value (“second order rate constant for the loss” below) [1]?
Answer: 28 M⁻¹ s⁻¹

Question: Which “inhibition of platelet aggregation” value [2] does the source give for O=C(O)/C=C1/CN(Cc2ccccc2Cl)CCC1SSc1ncccc1[N+](=O)[O-] (stereo not drawn) [Tic-NPT, (Z)-2-(1-(2-chlorobenzyl)-4-((3-nitropyridin-2-yl)disulfanyl)piperidin-3-ylidene)acetic acid] here?
Answer: approximately 60%

Question: With COC(=O)[C@H](c1ccccc1Cl)N1CCC2SC(=O)C=C2C1 (stereo partly drawn) [2-oxoclopidogrel, reference compound] as the molecule, how does the “inhibition of platelet aggregation” value ([3]; −G6PD control (non-metabolite components of the reaction mixture)) read?
Answer: did not inhibit platelet aggregation

Question: With COC(=O)C(c1ccccc1Cl)N1CCC(SSc2ccc(Cl)nn2)/C(=C\C(=O)O)C1 (stereo not drawn) [Clop-CPT] as the molecule, how does the “inhibition of platelet aggregation” value [2] read?
Answer: approximately 60%

Question: And the “first order rate constant for the loss” value ([1]; 1 mM GSH)?
Answer: 0.79 min⁻¹

Question: What about the “rate constant for the formation of the AM” value [1, 4] of the same molecule?
Answer: 0.35 min⁻¹

Question: What about the “rate constant for the reduction of the conjugate” value [1, 4] of the same molecule?
Answer: 0.39 min⁻¹

Question: And the “rate constant for the formation of the AM” value [1, 5]?
Answer: 0.50 min⁻¹

Question: And the “rate constant for the reduction of the conjugate” value [1, 5]?
Answer: 0.73 min⁻¹

Question: And the “second order rate constant for the loss” value [1]?
Answer: 13 M⁻¹ s⁻¹

Question: What about the “inhibition of platelet aggregation” value [3, 6] of the same molecule?
Answer: ~50%

Question: What about the “inhibition of platelet aggregation, conjugate itself” value ([3]; normalized to PRP) of the same molecule?
Answer: did not inhibit platelet aggregation

Question: Which results are given for COC(=O)C(c1ccccc1Cl)N1CCC(SSCC(NC(C)=O)C(=O)O)C(=CC(=O)O)C1 (stereo not drawn) [NAC conjugate]?
Answer: first order rate constant for the loss of the mixed disulfide conjugate ([1]; 1 mM GSH): 0.43 min⁻¹; second order rate constant for the loss of the conjugate [1]: 7.2 M⁻¹ s⁻¹

Question: Which results are given for COC(=O)[C@H](c1ccccc1Cl)N1CCC(S)/C(=C\C(=O)O)C1 (stereo partly drawn) [AM, reference compound]?
Answer: level of inhibition of platelet aggregation relative to the conjugates ([2]; positive control: active metabolite generated from HLMs): approximately the same; inhibition of platelet aggregation ([3]; sample from HLM reaction mixture containing 1 mM GSH (AM, estimated 1-4 μM)): ~60%

Question: With COC(=O)C(c1ccccc1Cl)N1CCC(SSc2ncccc2[N+](=O)[O-])C(=CC(=O)O)C1 (stereo not drawn) [NPT conjugate] as the molecule, how does the “first order rate constant for the loss” value ([1]; 1 mM GSH) read?
Answer: 0.13 min⁻¹

Question: What about the “second order rate constant for the loss” value [1] of the same molecule?
Answer: 2.2 M⁻¹ s⁻¹

Question: And the “inhibition of platelet aggregation” value [3, 6]?
Answer: ~70%

Question: What about the “inhibition of platelet aggregation, conjugate itself” value ([3]; normalized to PRP) of the same molecule?
Answer: did not inhibit platelet aggregation

Question: Which results are given for COC(=O)[C@H](c1ccccc1Cl)N1CCC(SSCCO)C(=CC(=O)O)C1 (stereo partly drawn) [BME conjugate]?
Answer: first order rate constant for the loss of the mixed disulfide conjugate ([1]; 1 mM GSH): 0.07 min⁻¹; conjugate remaining after incubation ([1]; 40 min, 1 mM GSH, cytosol): ~50%; second order rate constant for the loss of the conjugate [1]: 1.2 M⁻¹ s⁻¹
